Laboratory results reported in patent US7060733B2, “Methods for treating pancreatitis with curcumin compounds and inhibitors of reactive oxygen species” (The Regents of the University of California, priority 2002, dated 2006).

Key:
NF-κB = test: Curcumin and N-acetylcysteine alone and in combination, NF-κB activation in CCK-stimulated acinar cells; format: cell-based, rat; settings: 0.1 μM CCK
Method: To measure the effects of curcumin compounds and ROS inhibitors, EMSAs and nuclear protein extractions were conducted as provided above. […] EMSAs for NF-κB activation were performed on nuclear proteins extracted from each sample.

NF-κB and AP-1 = settings: antioxidant; cited from earlier work

Compound | inhibition of NF-κB activation in CCK-stimulated acinar cells (NF-κB; N-acetylcysteine 10 μM alone) | NF-κB activation (NF-κB and AP-1) | inhibition of NF-κB activation in CCK-stimulated acinar cells (NF-κB; curcumin 50 μM with N-acetylcysteine 10 μM)
CC(=O)N[C@@H](CS)C(=O)O [N-acetylcysteine, reference compound] | very little inhibition | inhibit | –
curcumin and N-acetylcysteine | – | – | synergistic effect
